Experimental data reported in US20030060438A1, “Oligonucleotides and other modulators of the NK-1 receptor pathway and therapeutic uses thereof” (priority 2000, published 2003).

System: NK-1 receptor
Assay: Intradermal substance P-induced plasma extravasation in skin (Evans blue)
Type: in vivo, rat
Settings: 300 micro grams/kg, Q12 h, intraperitoneal for 6 days; intradermal substance P 6.7 nmol/100 microlitres
Protocol: Intradermal injection of substance P and neurokinin A produce a wheal and flare inflammatory reaction. Antisense (AS) oligonucleotide (300 micro grams/kg, Q12 h, intraperitoneal) or saline was administered for 6 days prior to experimentation. Substance P or neurokinin A was injected into the dermis of the skin (6.7 nmol/100 microlitres) after intravenous administration of evans blue dye which allows for assessment of neuropeptide-induced plasma extravasation. […] Statistical analysis was performed using an unpaired t-test.

## 5′gac gtt atc cat ttt ggg g3′ (antisense GACGTTATCCATTTTGGGG; listed as DNA, chemistry not fully specified) [NK-1 receptor antisense oligonucleotide used in all experiments]
  substance P-induced plasma extravasation (skin): significantly reduced
